From article PMC7884015 (Journal of Agricultural and Food Chemistry, 2021)
“Also recorded” adds a separate entry of the source. Like-named read-outs stand apart in the source and are kept apart here.

Key:
[1] = in vivo; conditions: for Bee without gut %: percentage of total quantity recovered in the dissected bee found in the bee without gut; for Bee without gut % / Gut %: N = 6; for Gut %: percentage of total quantity recovered in the dissected bee found in the gut
Text: (§1) Honey bees (A. mellifera L) were collected from brood frames in the apiary of Aarhus University, Flakkebjerg. The collected bees were fed on 50% sucrose for 3 days. On day 3, the bees were divided into eight experimental groups placed in feeding cages (N = 49–73). The exact numbers of bees in the individual cages were counted at the end of the experiment. A portion of bees were also collected for the analysis of the presence of the compounds prior to the experiment. Thus, these bees served as a negative control group. The feeding boxes were placed in incubators in complete darkness under the following conditions: 34 °C; 38–40% relative humidity. Information about plants known to produce the phytochemicals fed to the honey bees is included in the Supporting Information (Table S1). The prepared solutions were placed in 1.5 mL Eppendorf tubes, and the bottom of the tubes was pierced with a sterilized needle to allow the bees to feed on the solution. The feeding solutions were replaced every 24 h to prevent compound degradation and measure food intake. Dead bees were counted and removed daily. On day 5, the feeding containers were removed, and 2 h later, the bees were anesthetized with CO2 and killed by freezing.
Six bees from each of the experimental groups were defrosted and rinsed with water, and their heads were removed with a scalpel to cut the esophagus. The complete alimentary canal (hereafter “gut”) was removed by grabbing the stinger with tweezers and gently pulling until the alimentary canal was released.[31] The two samples consisting of the gut and the rest of the bee without the gut (head, thorax, and abdomen; hereafter, “bee without gut”) were lyophilized separately in 1.5 mL Eppendorf tubes. Upon drying, the samples comprising the bees without guts were transferred to the extraction Falcon tubes, pulverized, and extracted as described above for the whole bees. Samples comprising the guts were instead pulverized directly in the 1.5 mL Eppendorf tubes by adding two metal beads and placing these tubes in the Geno/Grinder using a modified rack. Because of the small sample size, the pulverized guts were then gradually transferred to the extraction Falcon tubes using the extraction solvents to flush the material from the Eppendorf tubes. The remaining parts of the extraction followed the protocols described above for whole bees.
(§2) Prior to the analysis, the compound-dependent mass spectrometer parameters of the eight compounds were optimized by infusion. For each compound, two MRM transitions were monitored (Table 2); one transition was used for quantification, whereas the other was used as a qualifier MRM to ensure correct identification.
(§3) The compounds were separated on a Synergy Fusion column (150 mm × 2 mm, 4 μm; Phenomenex, Værløse, Denmark) with a flow rate of 0.4 mL/min, and the gradient was as follows: 0–2 min: 100% A; 2–18 min: 100–30% A; 18–19 min: 30–0% A; 19–22 min: 0% A; 22–23 min: 0–100% A and 23–30 min: 100% A. Source parameters were as follows: curtain gas (CUR), 45 psi; collision gas (CAD), medium; temperature (TEM), 400 °C; ion source gas 1 (GS 1), 90 psi; ion source gas 2 (GS 2), 30 psi; and ionspray voltage (IS), 4200 V. Amygdalin was analyzed using the same source parameters and chromatographic method as described above, but in negative mode. […] The column was a Hypersil BDS C18 (250 mm × 2.1 mm, 5 μm; Thermo Fisher, Hvidovre, Denmark), and the solvent system consisted of 5 mM ammonium formate (A) and methanol (B). […] An injection volume of 30 μL was used for the triptolide analyses, whereas 20 and 30 μL were injected for the remaining compounds for whole and dissected bees, respectively.
In the individual dissected bees (N = 6), the sum of the quantities recovered in the guts and the bees without guts designates the total quantity of compound recovered in that individual.

[2] = tested on: Crithidia bombi; conditions: bumble bees; cited from earlier work
[3] = for Metabolization percentage, day 4 to 5: quantity in whole bees vs intake during the last 24 h of feeding
Text: as §1
Twelve individual bees from each of the experimental groups were rinsed with water and placed individually in 1.5 mL Eppendorf tubes. The bees were then lyophilized and transferred individually to Falcon tubes for extraction. […] The extraction solvents were added, and the bees were extracted by shaking using an Intelli-Mixer for 1 h (60 rpm). […] After extraction, the samples were centrifuged (12 min, 4 °C, 4500 rpm). […] Extracts of bees fed on triptolide were further purified by solid phase extraction (SPE) using a protocol modified from Wang et al.[30] One milliliter of the methanol extracts was diluted to 10 mL with Milli-Q water, 100 μL of formic acid was added, and the diluted extracts were loaded onto 30 mg Oasis HLB prime SPE (Waters, Hedehusene, Denmark) cartridges without prior column conditioning. The SPE cartridges were first washed with 1 mL of 2% ammonium hydroxide in 1:9 methanol/water and then with 1 mL of 2% acetic acid in 3:7 methanol/water, and triptolide was eluted from the cartridges with 1 mL of 4:1 methanol/water. Prior to HPLC-MS/MS analyses, 225 μL of the SPE eluates was diluted with 275 μL of 5 mM ammonium formate and filtered using a syringe filter (Kinesis KX PTFE syringe filter 13 mm, 0.22 μm, Mikrolab, Aarhus, Denmark).
as §2, §3

[4] = tested on: honey bee memory retrieval; conditions: cited from earlier work
[5] = tested on: honey bee immune functions (antimicrobial peptide hymenoptaecin); parameters: method as in PMID 28981688; conditions: cited from earlier work
[6] = tested on: honey bees; conditions: cited from earlier work
[7] = dissected bees N = 6, day 5, ± SD
[8] = in vivo, po, oral bioavailability (%), percentage of the total ingested quantity over the 5-day feeding period recovered in the bees without guts, ± SD, dissected bees N = 6
[9] = percentage of the total ingested quantity over the 5-day feeding period recovered in the bees without guts, ± SD, dissected bees N = 6
[10] = comparison between the eight phytochemicals, P < 0.05
[11] = whole bees N = 12, sampled day 5, 2 h after feeding was terminated, ± SD
[12] = honey bee (Apis mellifera), in vivo
[13] = honey bee (Apis mellifera), in vivo, po, oral bioavailability (%), percentage of the total ingested quantity over the 5-day feeding period recovered in the bees without guts, ± SD, dissected bees N = 6

Row | SMILES | Bee without gut (ng/bee) [1, 7] [ng/bee] | Gut (ng/bee) [1, 7] [ng/bee] | oral bioavailability (%) [1, 9] [%] | Bee without gut % ([1]; ± SD) [%] | Gut % ([1]; ± SD) [%] | Relative metabolization rate [3, 10] | Mean concentration (ng/bee) in whole bees [3, 11] [ng/bee] | bioavailability [1, 8] [%] | other results
1 | C=C[C@]12CN(C)[C@@H]3[C@H]4CO[C@H](C[C@H]41)[C@]1(C(=O)Nc4ccccc41)[C@@H]32 [gelsemine, Gelsemine] | 461 ± 415 | 106 ± 67 | 6.1 ± 5.5 | 71 ± 32 | 30 | metabolized significantly faster | 508 ± 174 |  | bioavailability at 5 day [1, 8]: 6%; Gut % ([1]; ± SD, listed as Gelsemine): 30 ± 32%; Effect on levels of the bumble bee gut protozoan Crithidia bombi [2]: significantly decreased the levels
2 | CN1[C@@H]2CC[C@H]1C[C@@H](OC(=O)C(CO)c1ccccc1)C2 (stereo partly shown) [atropine, Atropine, reference compound] | 89 ± 65 | 90 ± 17 |  | 46 ± 15 | 54 ± 15 |  | 236 ± 76 |  | Consumed concentration that can impair honey bee memory retrieval [4]: above 10^–2 M
3 | CCN1C[C@]2(COC(=O)c3ccccc3N3C(=O)C[C@H](C)C3=O)CC[C@H](OC)[C@@]34[C@@H]5C[C@H]6[C@H](OC)[C@@H]5[C@](O)(C[C@@H]6OC)[C@@](O)([C@@H](OC)[C@H]23)[C@@H]14 [methyllycaconitine, Methyllycaconitine] | 0.2 ± 0.1 | 0.05 ± 0.03 |  | 81 ± 13 | 19 ± 13 | metabolized significantly faster | 0.3 ± 0.2 | < 10 | 
4 | CC(C)[C@]12O[C@H]1[C@@H]1O[C@]13[C@]1(O[C@H]1C[C@H]1C4=C(CC[C@@]13C)C(=O)OC4)[C@@H]2O [triptolide, Triptolide] | 3.1 ± 1.5 | 0.6 ± 0.2 | 20.6 ± 9.9 | 79 ± 11 | 21 ± 11 | metabolized significantly slower | 4.4 ± 2.8 | 21 | Metabolization percentage, day 4 to 5 [3]: significantly lower; also recorded: negative metabolization percentages; Metabolization percentage, day 1 to 5 ([3]; quantity in whole bees vs total intake over the 5-day feeding period, day 5, 2 h after feeding was terminated): significantly lower
5 | C/C=C1/C[C@@H](C)[C@@](C)(O)C(=O)OCC2=CCN3CC[C@@H](OC1=O)[C@@H]23 [senecionine, Senecionine] |  |  |  |  |  |  |  |  | Bee without gut (ng/bee) [1, 12]: 3.4 ± 2.2 ng/bee; Gut (ng/bee) [1, 12]: 2.3 ± 1.3 ng/bee; bioavailability ([1]; honey bee (Apis mellifera), in vivo, po, oral bioavailability (%)): < 10%; bioavailability ([1]; in vivo, po, oral bioavailability (%)): 4 ± 2.6%; Mean concentration (ng/bee) in whole bees [3, 12]: 4.9 ± 1.6 ng/bee; Relative metabolization rate ([3]; in vivo): metabolized significantly faster
6 | OCC1=C[C@@H](O)[C@@H]2C=CO[C@@H](O[C@@H]3O[C@H](CO)[C@@H](O)[C@H](O)[C@H]3O)[C@H]12 [aucubin, Aucubin] |  |  |  |  |  | metabolized significantly slower | 16400 ± 5640 | 13.1 ± 3.8 | bioavailability [1, 13]: 13%; Effect on levels of the bumble bee gut protozoan Crithidia bombi [2]: significantly decreased the levels; Metabolization percentage, day 4 to 5 [3]: significantly lower; also recorded: negative metabolization percentages; Effect on expression of the antimicrobial peptide hymenoptaecin ([5]; aucubin feeding): significantly increased the expression; Effect on honey bee immune functions [5]: significantly stimulated honey bee immune functions
7 | C/C=C1/C[C@@H](C)[C@@](C)(O)C(=O)OC/C2=C/CN(C)CC[C@@H](OC1=O)C2=O [senkirkine, Senkirkine] | 7.0 ± 4.9 | 2.3 ± 3.0 | 8.9 ± 6.3 | 73 ± 28 | 27 | metabolized significantly faster | 7.4 ± 3.5 | 9 | bioavailability [1, 13]: < 10%
8 | N#C[C@H](O[C@@H]1O[C@H](CO[C@@H]2O[C@H](CO)[C@@H](O)[C@H](O)[C@H]2O)[C@@H](O)[C@H](O)[C@H]1O)c1ccccc1 [amygdalin, Amygdalin] | 833 ± 511 | 78 ± 34 |  | 90 ± 5 | 11 | metabolized significantly faster | 238 ± 218 | 31 ± 19 | LD50 [6]: 0.003%
